According to patent publication US8486891B2, “Nasal calcitonin formulations containing chlorobutanol” (Par Pharmaceutical, Inc., priority 2003, dated 2013):
Values belong to the compound of their own block, whether it stands above or below them.

Assays:
rat trachea = assay: Inhibition of ciliary beating frequency of rat trachea; type: cell-based
Source text: The prior art teaches away from the use of chlorobutanol stating that at 0.6% concentration, the chlorobutanol caused more than 50% inhibition of ciliary beating frequency of rat trachea.

[1] = ingredient as supplied (EP grade); cited from earlier work
[2] = healthy volunteers, decongestant nasal spray containing the preservative; cited from earlier work
[3] = system: respiratory mucosal tissue; conditions: in vitro exposure; Berg et al. 1994; cited from earlier work
frog palate = conditions: ex vivo frog palate; Braga et al. 1992; cited from earlier work

- effect on ciliary beating frequency of rat trachea (rat trachea; chlorobutanol concentration less than 0.4%): greatly reduced
- effect on ciliary beating frequency of rat trachea (rat trachea; chlorobutanol concentration of around 0.25%): totally eliminated
Compound: CC(C)(O)C(Cl)(Cl)Cl [chlorobutanol]

Compound: Salmon Calcitonin [Salmon Calcitonin, EP]
- Potency [1]: Potency of 6236 IU/mg

Compound: benzalkonium chloride
- effect on rhinitis [2]: aggravate rhinitis
- morphological effect on respiratory mucosal tissue [3]: severe morphological alterations
- mucocilary transport velocity (frog palate): significant slowing
